Reference: publication PMC13081163, “Discovery of a novel Nrf2 activator that modulates mitochondrial function in neurons by regulating DHRS3-Nrf2 interaction after ischemic stroke” (Theranostics, 2026)
Like-named read-outs stand apart in the source and are kept apart here.

Columns and labels:
DHRS3 = assay: Western blotting of DHRS3 in SH-SY5Y cells after OGD/R; assay type: cell-based, human
Method: The western blotting analysis was conducted as we previously described. First, the total protein was extracted using RIRA buffer and then the protein concentrations were determined using the BCA kit (P0012, Beyotime, China). The extraction of mitochondrial proteins was carried out according to the instructions (C3601, Beyotime, China). The samples were separated electrophoretically and then wet-transferred onto 0.2 μm PVDF membranes (88520, Thermo Scientific, USA). After blocking with 5% non-fat dry milk in Tris-buffered saline (TBS) (pH 7.4) containing 0.1% Tween 20 at room temperature for 2 h, the protein membranes were sequentially immersed with the primary antibody at 4 °C overnight and secondary antibody at room temperature for 1 h. Finally, the membranes were quantified using image analysis system.

Nrf2 = Nrf2 (Homo sapiens, UniProt Q14145); assay: Nrf2 nuclear translocation by immunofluorescence; assay type: cell-based; details: 100 nM, SH-SY5Y cells and primary cortical neurons
Nrf2, sequence (Q14145 whole entry): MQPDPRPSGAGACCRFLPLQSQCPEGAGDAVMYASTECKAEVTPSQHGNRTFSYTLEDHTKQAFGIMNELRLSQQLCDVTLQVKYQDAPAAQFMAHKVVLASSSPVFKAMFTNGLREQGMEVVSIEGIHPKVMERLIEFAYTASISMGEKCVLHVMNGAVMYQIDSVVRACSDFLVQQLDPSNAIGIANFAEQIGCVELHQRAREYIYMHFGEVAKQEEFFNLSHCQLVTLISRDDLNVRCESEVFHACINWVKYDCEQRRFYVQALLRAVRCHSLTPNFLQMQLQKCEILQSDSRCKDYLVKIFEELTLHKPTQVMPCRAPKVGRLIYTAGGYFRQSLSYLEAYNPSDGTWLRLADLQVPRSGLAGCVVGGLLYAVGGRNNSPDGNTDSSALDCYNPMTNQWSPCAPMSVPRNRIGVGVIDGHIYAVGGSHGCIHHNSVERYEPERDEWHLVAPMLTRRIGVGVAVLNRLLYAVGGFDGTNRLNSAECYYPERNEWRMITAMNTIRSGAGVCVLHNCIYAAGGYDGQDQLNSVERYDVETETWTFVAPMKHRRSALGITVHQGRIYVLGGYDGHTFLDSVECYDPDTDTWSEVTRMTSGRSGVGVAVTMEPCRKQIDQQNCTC
Nrf2, sequence (Q16236 whole entry, further chain): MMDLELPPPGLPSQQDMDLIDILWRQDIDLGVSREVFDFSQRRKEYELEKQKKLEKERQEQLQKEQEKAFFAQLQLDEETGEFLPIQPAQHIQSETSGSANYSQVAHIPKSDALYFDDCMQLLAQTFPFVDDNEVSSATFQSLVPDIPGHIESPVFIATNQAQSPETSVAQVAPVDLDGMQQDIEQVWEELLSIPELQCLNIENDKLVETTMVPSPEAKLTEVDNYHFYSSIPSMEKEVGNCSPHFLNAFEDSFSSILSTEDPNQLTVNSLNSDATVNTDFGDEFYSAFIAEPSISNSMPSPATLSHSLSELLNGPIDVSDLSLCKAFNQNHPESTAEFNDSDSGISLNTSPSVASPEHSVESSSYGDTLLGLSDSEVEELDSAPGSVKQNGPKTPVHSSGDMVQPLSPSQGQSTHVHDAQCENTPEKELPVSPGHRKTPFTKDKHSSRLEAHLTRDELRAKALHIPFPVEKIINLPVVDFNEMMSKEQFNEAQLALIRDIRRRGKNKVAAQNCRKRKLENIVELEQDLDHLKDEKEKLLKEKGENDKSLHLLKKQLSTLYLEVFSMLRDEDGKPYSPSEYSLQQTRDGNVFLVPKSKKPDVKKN
Method: Immunostaining: cells were fixed with 4% paraformaldehyde for 20 min and then incubated with blocking solution (10% normal goat serum, 0.5% Triton X-100 in PBS) for 1 h at room temperature. Then, the samples were incubated overnight with primary antibodies: anti-Nrf2 (1:200, CST), anti-DHRS3 (1:300, Proteintech), anti-NeuN (1:500, Servicebio). When evaluating the extraction efficiency of primary cortical neurons, we performed co-staining with β-tubulin (1:200, Abcam) and Synaptophysin (1:300, ABclonal). After being washed with PBST three times, the samples were incubated with the corresponding secondary antibodies for 2 h in the dark. The nuclei were stained with DAPI (C1006-200mL, Beyotime, China) for 20 min. Finally, images were captured with a fluorescence microscope. Fluorescence integrated density was measured by ImageJ as previously described.

primary cortical neurons = assay: OGD/R damage in primary cortical neurons (CCK-8); assay type: cell-based, rat
Method: To mimic ischemic conditions in vitro, cells were washed with PBS and then cultured for 2.5 h at 37 °C in glucose-free medium under anaerobic conditions (5% hydrogen, 90% nitrogen, and 5% carbon dioxide). OGD process was terminated by transferring cells back to normal glucose-containing medium under normoxic conditions (5% CO₂, 37 °C) and maintained for 24 h.
In the administration group, cells were exposed for 12 h with Cpd.51 prior to OGD. OGD lasted for 2.5 h and the reperfusion lasted for 24 h before the experiment was concluded. Subsequently, cell viability was determined using the cell counting kit-8 (CCK-8, C0039, Beyotime, China). In the experiment to explore the treatment time window, the only difference was the timing of the Cpd.51 treatment, while all other procedures remained unchanged.
Rat primary neuronal cells collected from the cerebral cortices of embryos (embryonic day 18) from pregnant SD rats were isolated and cultured. In brief, the cerebral cortex tissue of […] was removed and cut into small pieces using ophthalmic curved shears. The tissue was repeatedly pipetted after the addition of preheated 0.25% Trypsin digestive solution (BR00083, ABclonal, China). Finally, twice the volume of the culture medium was added and terminated the digestion to complete the extraction of primary cortical cells. […]

[1] = Plasma and brain levels after i.v. dosing (blood-brain barrier); assay type: in vivo, rat; details: for concentration at 0.25 h / concentration at 1 h / concentration at 4 h: intravenous, i.v.
Method: Male SD rats were intravenous injection with Cpd.51, blood and brain tissues were collected 15 min, 1 h, 4 h, 6 h, 8 h and 24 h after drug administration. Samples were measured by a Shimadzu chromatography system (Shimadzu, Kyoto, Japan) coupled with an AB Sciex triple quadrupole 4500 mass spectrometer (SCIEX Triple Quad™ 4500 LC-MS/MS, Applied Biosystems Sciex, Ontario, Canada) using Analyst 1.4.2 software. A HPLC column (ACQUITY UPLC BEH C18, 2.1 × 50 mm, 1.7 μm) were used. Protein precipitation method was used for detection: 50 μL plasma sample or brain homogenate sample were added with 200 μL acetonitrile containing internal standard for precipitation, then vortexed for 3 min. The supernatant was injected into system for analysis after centrifugation.

[2] = molecular target: T1, Keap1 BTB domain (48-180) (Homo sapiens, UniProt Q14145); assay: SPR binding to truncated Keap1 (48-180); details: read-out: KD, Keap1 BTB domain fragment
T1 construct: truncated form of Keap1 (residues 48-180 and residues 48-149)
T1 sequence (Q14145 48-180): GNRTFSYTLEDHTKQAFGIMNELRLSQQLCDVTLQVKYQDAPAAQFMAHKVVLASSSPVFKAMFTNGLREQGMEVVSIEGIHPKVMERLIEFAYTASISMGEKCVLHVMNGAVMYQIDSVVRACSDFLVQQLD
Method: The binding affinity of Cpd.51 or Oma to Keap1 proteins were measured using a Biacore T200. The overall experimental procedures were based on previous reports, [28]. Human recombinant Keap1 proteins or truncated form of Keap1 (residues 48-180 and residues 48-149) were captured on a CM5 chip by a standard amine coupling procedure. Binding sensorgrams were recorded by injecting various concentrations of Cpd.51 over the immobilized proteins surface. The dissociation constant was obtained by globally fitting the data (to the 1:1 Langmuir binding model using the Biacore Insight evaluation software (Cytiva, Marlborough, MA, USA). Affinity tests for Cpd.51 and DHRS3 were also performed using the aforementioned method.

[3] = Acute (7-day i.v.) toxicity in rats; assay type: in vivo, rat; details: 10 mg/kg i.v. daily for 7 days
Method: Cpd.51 was dissolved in solvent (10% DMSO, 10% Solutol HS-15 and 80% saline). It was injected (i.v.) at dose of 3 mg/kg or 5 mg/kg in a 0.5 mL volume. The Sham group and Vehicle group were treated simultaneously with an equal volume of solvent. In the experiment to explore the treatment time window, we merely administered the drug to the rats at different time points, while all other procedures remained unchanged. In the short-term toxicity study, 10 mg/kg Cpd.51 and Oma were administered via tail vein injection at 0.5 mL daily for 7 consecutive days.
Glutamic-pyruvic transaminase (GPT) kits (ml092635, mlbio, China), glutamic oxaloacetic transaminase (GOT) kits (ml092714, mlbio, China), creatinine (CRE) kits (M12C4L, mlbio, China) and blood urea nitrogen (BUN) kits (ml076479, China) were used to detect the serum of rats in order to evaluate liver and kidney functions. Male and female rats were randomly divided into Sham group, Cpd.51 group and Oma group. Doses were administered once daily at 10 mg/kg and body weights were recorded accordingly. Sham groups were given the same volume of solvent. After 7 days, the […] were sacrificed, serum was collected and tested according to the instructions.

For `CC1(C)CCC2(C(=O)NO)CCC3(C)C(C(=O)C=C4C5(C)C=C(C#N)C(=O)C(C)(C)C5CCC43C)C2C1` (centres unmarked) [Cpd.51], the “DHRS3 protein expression induced by OGD/R” value (DHRS3) was “substantially attenuated this induction”, the Nrf2 nuclear translocation (Nrf2) was “Nrf2 nuclear translocation within 15 min” and the “efficacy in OGD/R-induced primary neuronal damage” value (primary cortical neurons) was “excellent efficacy”. The “distribution to brain tissue” value ([1]; intravenous administration) was “relatively effective distribution to brain tissue”, the concentration at 0.25 h ([1]; male, SD, rat, brain, 5 mg/kg, 0.25 h, read-out: Brain) was 86.7 ± 49.3 ng/g and the concentration at 1 h ([1]; male, SD, rat, brain, 5 mg/kg, 1 h, read-out: Brain) was 29.5 ± 17.5 ng/g. It also gave a concentration at 4 h ([1]; male, SD, rat, brain, 5 mg/kg, 4 h, read-out: Brain) of 10.3 ± 4 ng/g, a Kp at 0.25 h ([1]; male, SD, rat, brain, iv, 5 mg/kg, 0.25 h) of 0.07 ± 0.04 and a Kp at 1 h ([1]; male, SD, rat, brain, iv, 5 mg/kg, 1 h) of 0.16 ± 0.12. The Kp at 4 h ([1]; male, SD, rat, brain, iv, 5 mg/kg, 4 h) was 0.28 ± 0.14, the concentration at 0.25 h ([1]; male, SD, rat, plasma, 5 mg/kg, 0.25 h, read-out: Plasma) was 1290 ± 68 ng/mL and the concentration at 1 h ([1]; male, SD, rat, plasma, 5 mg/kg, 1 h, read-out: Plasma) was 198 ± 44 ng/mL. The concentration at 4 h ([1]; male, SD, rat, plasma, 5 mg/kg, 4 h, read-out: Plasma) was 39.5 ± 10.4 ng/mL, the Kd [2] was 31.3 µM and the “liver hypertrophy, serum GPT and GOT” value [3] was “not observed”. For the same compound, the “serum CRE and BUN” value [3] was “did not induce these changes” and the weight gain [3] was “suppressed weight gain”.
